Laboratory results taken from EP4483954A1 (Masarykova Univerzita, priority 2023, dated 2025).

Columns and labels:
Assay type in all cases: biochemical
[1] = molecular target: T1, CDKL3(h) (Homo sapiens, UniProt Q8IVW4); assay: radiometric kinase assay (KinaseProfiler, Eurofins), CDKL3; conditions: in vitro radiometric kinase assay, tested at 1 nM to 10 000 nM, no pre-incubation; read-out: inhibitory activities (IC50 values) CDKL3
T1 construct: purchased Eurofins (KinaseProfiler)
Procedure: (§1) The compounds were profiled in the radiometric assays (KinaseProfiler, Eurofins).
Briefly, kinases were diluted in the buffer shown below prior to addition to the reaction mix: • CDKL3, TAF1L: 20 mM Tris/HCl pH 8.5, 0.2 mM EDTA, 0.1% β-mercaptoethanol, 0.01% Brij-35, 5% glycerol, 1 mg/ml BSA; • Haspin: 15 mM MOPS, 0.75 mM EDTA, 0.0075% Brij-35, 3.75% Glycerol, 150 mM NaCl, 0.1% β-mercaptoethanol, 1 mg/mLBSA; • CDKL4, CLK2, PIM1, TRB2: […], 1 mM EDTA, 0.01% Brij-35, 5% Glycerol, 0.1% β-mercaptoethanol, 1 mg/mL BSA.
(§2) All compounds were prepared to 50x final assay concentration in 100% DMSO. This working stock of the compound was added to the assay well as the first component in the reaction, followed by the remaining components as detailed in the general assay protocols below. There was no pre-incubation step between the compound and the kinase prior to initiation of the reaction.
CDKL3(h) was incubated with 8 mM MOPS pH 7.0, 0.2 mM EDTA, 250 µM RRRFRPASPLRGPPK (SEQ ID NO. 1), 10 mM magnesium acetate and γ-^33P-ATP (specific activity and concentration as required). The reaction was initiated by the addition of the Mg/ATP mix. After incubation for 120 minutes at room temperature, the reaction was stopped by the addition of phosphoric acid to a concentration of 0.5%. An aliquot of the stopped reaction was spotted onto a filter and washed four times for 4 minutes in 0.425% phosphoric acid and once in methanol prior to drying and scintillation counting.
(§3) Kinase activity data were expressed as the percent remaining kinase activity in tested samples compared to the vehicle (DMSO) reactions. The compounds were tested at the following concentrations: 1 nM, 3 nM, 10 nM, 30 nM, 100 nM, 300 nM, 1000 nM, 3000 nM, and 10 000 nM; IC50 values and curve fits were then obtained.

[2] = molecular target: T2, DYRK2 (h) (Homo sapiens, UniProt Q92630); assay: radiometric kinase assay (KinaseProfiler, Eurofins), DYRK2; conditions: in vitro radiometric kinase assay, tested at 1 nM to 10 000 nM, no pre-incubation; read-out: inhibitory activities (IC50 values) DYRK2
T2 construct: purchased Eurofins (KinaseProfiler)
T2 sequence (Q92630 1-601): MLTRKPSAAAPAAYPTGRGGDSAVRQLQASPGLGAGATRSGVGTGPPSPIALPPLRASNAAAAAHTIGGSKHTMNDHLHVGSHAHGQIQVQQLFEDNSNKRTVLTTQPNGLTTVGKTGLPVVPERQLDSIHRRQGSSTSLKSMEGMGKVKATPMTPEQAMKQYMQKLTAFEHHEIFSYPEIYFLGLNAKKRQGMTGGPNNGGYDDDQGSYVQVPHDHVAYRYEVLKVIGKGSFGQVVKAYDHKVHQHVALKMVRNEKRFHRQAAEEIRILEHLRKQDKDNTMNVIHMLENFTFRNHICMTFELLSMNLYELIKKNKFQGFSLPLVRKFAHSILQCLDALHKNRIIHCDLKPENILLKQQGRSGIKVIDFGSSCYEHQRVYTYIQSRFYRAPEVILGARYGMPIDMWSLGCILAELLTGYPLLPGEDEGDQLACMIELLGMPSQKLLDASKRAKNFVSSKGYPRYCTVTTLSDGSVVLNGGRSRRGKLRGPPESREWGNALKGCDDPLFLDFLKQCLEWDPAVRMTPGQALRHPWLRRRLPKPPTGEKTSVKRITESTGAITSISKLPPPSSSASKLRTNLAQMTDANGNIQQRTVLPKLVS
Procedure: as §1, §2
DYRK2 (h) was incubated with 8 mM MOPS pH 7.0, 0.2 mM EDTA, 2 mg/mL casein, 10 mM magnesium acetate and γ-^33P-ATP (specific activity and concentration as required). The reaction was initiated by the addition of the Mg/ATP mix. After incubation for 40 minutes at room temperature, the reaction was stopped by the addition of phosphoric acid to a concentration of 0.5%. An aliquot of the reaction was then spotted onto a filter and washed four times for 4 minutes in 0.425% phosphoric acid and once in methanol prior to drying and scintillation counting.
as §3

[3] = molecular target: T3, Haspin (h) (Homo sapiens, UniProt Q8TF76); assay: radiometric kinase assay (KinaseProfiler, Eurofins), Haspin; conditions: in vitro radiometric kinase assay, tested at 1 nM to 10 000 nM, no pre-incubation; read-out: inhibitory activities (IC50 values) Haspin
T3 construct: purchased Eurofins (KinaseProfiler)
T3 sequence (Q8TF76 1-798): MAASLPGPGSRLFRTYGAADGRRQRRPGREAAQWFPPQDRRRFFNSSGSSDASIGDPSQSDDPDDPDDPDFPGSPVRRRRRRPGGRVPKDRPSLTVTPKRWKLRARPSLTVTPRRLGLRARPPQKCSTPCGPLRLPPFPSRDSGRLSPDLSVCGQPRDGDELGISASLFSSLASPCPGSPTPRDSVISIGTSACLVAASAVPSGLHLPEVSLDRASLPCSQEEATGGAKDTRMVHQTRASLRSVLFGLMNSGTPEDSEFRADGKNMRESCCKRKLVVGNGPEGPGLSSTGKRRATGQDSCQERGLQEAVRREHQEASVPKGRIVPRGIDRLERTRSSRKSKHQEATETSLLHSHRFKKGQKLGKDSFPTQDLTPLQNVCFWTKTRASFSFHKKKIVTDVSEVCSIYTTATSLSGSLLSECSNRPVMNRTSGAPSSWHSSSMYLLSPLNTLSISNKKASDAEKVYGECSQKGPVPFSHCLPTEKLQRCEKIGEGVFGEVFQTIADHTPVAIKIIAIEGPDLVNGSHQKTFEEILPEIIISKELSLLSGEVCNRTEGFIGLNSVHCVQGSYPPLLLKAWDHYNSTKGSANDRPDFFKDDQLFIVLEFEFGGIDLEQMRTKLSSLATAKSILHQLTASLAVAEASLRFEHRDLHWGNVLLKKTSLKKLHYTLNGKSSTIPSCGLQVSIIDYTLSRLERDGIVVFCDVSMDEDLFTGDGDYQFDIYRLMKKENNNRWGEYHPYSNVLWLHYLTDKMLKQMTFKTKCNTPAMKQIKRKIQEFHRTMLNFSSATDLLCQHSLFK
Procedure, shortened: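 Human Haspin in 8 mM MOPS pH 7.0 with 500 µM RARTLSFAEPG, 10 mM Mg acetate and γ-33P-ATP; compound added without preincubation. Reaction ran 40 min at room temperature, then filter-bound 33P was counted. Nine concentrations from 1 to 10 000 nM gave % remaining activity versus DMSO, and IC50 came from curve fit.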

T1 sequence (Q8IVW4 whole entry): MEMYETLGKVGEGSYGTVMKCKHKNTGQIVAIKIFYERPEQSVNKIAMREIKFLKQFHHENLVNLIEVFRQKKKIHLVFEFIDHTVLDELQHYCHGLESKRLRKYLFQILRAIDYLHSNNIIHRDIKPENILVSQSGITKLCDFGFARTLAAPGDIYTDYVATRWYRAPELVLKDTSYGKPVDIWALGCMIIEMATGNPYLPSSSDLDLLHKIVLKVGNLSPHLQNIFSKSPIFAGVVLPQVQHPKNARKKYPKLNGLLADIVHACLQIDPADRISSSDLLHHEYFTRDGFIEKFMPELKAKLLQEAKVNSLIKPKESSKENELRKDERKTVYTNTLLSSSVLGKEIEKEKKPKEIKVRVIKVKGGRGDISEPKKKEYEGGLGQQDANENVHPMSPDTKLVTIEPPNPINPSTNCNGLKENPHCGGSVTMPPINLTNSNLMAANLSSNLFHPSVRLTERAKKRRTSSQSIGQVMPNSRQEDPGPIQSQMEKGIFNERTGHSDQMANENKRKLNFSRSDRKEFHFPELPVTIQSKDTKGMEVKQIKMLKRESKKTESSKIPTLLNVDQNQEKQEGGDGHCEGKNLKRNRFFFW

Compound: Cc1cc(-c2csc3ccc(-c4cnn(C)c4)nc23)cc(C)n1 [Preparative Example 30, 3-(2,6-dimethylpyridin-4-yl)-5-(1-methyl-1H-pyrazol-4-yl)thieno-[3,2-b]pyridine]
- IC50 [1]: 500 to 3000 nM
- IC50 [2]: 500 to 3000 nM
- IC50 [3]: 100 to 499 nM

Compound: Cc1sc2ccc(-c3cnn(C)c3)nc2c1-c1ccncc1 [Preparative Example 142, 2-methyl-5-(1-methyl-1H-pyrazol-4-yl)-3-(pyridin-4-yl)thieno[3,2-b]pyridine]
- IC50 [1]: 500 to 3000 nM
- IC50 [2]: 500 to 3000 nM
- IC50 [3]: 500 to 3000 nM

Compound: Cc1cc(-c2csc3ccc(-c4cnn(C)c4)nc23)ccn1 [Preparative Example 15, 5-(1-methyl-1H-pyrazol-4-yl)-3-(2-methylpyridin-4-yl)-thieno[3,2-b]pyridine]
- IC50 [1]: 100 to 499 nM
- IC50 [2]: 500 to 3000 nM
- IC50 [3]: 100 to 499 nM

Compound: Cn1cc(-c2ccc3scc(-c4ccncc4)c3n2)cn1 [Preparative Example 13, 5-(1-methyl-1H-pyrazol-4-yl)-3-(pyridin-4-yl)thieno[3,2-b]pyridine]
- IC50 [1]: 100 to 499 nM
- IC50 [2]: 500 to 3000 nM
- IC50 [3]: 20 to 99 nM

Compound: c1ccc(-c2csc3ccc(-c4ccoc4)nc23)cc1 [Preparative Example 123, 5-(furan-3-yl)-3-phenylthieno[3,2-b]pyridine]
- IC50 [1]: 3000 to 10000 nM
- IC50 [2]: 3000 to 10000 nM
- IC50 [3]: 3000 to 10000 nM

Compound: Cn1cc(-c2ccc3scc(-c4cnn(Cc5ccccc5)c4)c3n2)cn1
- IC50 [1]: 500 to 3000 nM
- IC50 [2]: 3000 to 10000 nM
- IC50 [3]: 100 to 499 nM

Compound: Cn1cc(-c2ccc3scc(-c4ccncc4)c3n2)c(NC(=O)OC(C)(C)C)n1 [Preparative Example 83, tert-butyl(1-methyl-4-(3-(pyridin-4-yl)thieno[3,2-b]pyridin-5-yl)-1H-pyrazol-3-yl)carbamate]
- IC50 [1]: 500 to 3000 nM
- IC50 [2]: 3000 to 10000 nM
- IC50 [3]: 3000 to 10000 nM

Compound: Cn1cc(-c2ccc3scc(-c4ccncc4C#N)c3n2)cn1 [Preparative Example 34, 4-(5-(1-methyl-1H-pyrazol-4-yl)thieno[3,2-b]pyridin-3-yl)nicotino-nitrile]
- IC50 [1]: 500 to 3000 nM
- IC50 [2]: 500 to 3000 nM
- IC50 [3]: 500 to 3000 nM

Compound: Cn1cc(-c2ccc3scc(-c4ccnc(CN)c4)c3n2)cn1 [Preparative Example 28, (4-(5-(1-methyl-1H-pyrazol-4-yl)thieno[3,2-b]pyridin-3-yl)pyridin-2-yl)methanamine]
- IC50 [1]: 500 to 3000 nM
- IC50 [2]: 100 to 499 nM
- IC50 [3]: 20 to 99 nM
